Test results published in the supplement of paper PMC10307832.

Legend:
Assay in all cases: relative viability (nuclei count vs DMSO), 5 days (fraction); higher = more cells survive
[1] = compound: CN(C)C[C@@H]1CCn2cc(c3ccccc32)C2=C(C(=O)NC2=O)c2cn(c3ccccc23)CCO1 [Ruboxistaurin]
Summary of the method: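 Following overnight incubation at 37 °C, lung cancer cell lines in 1536-well plates were pinned with five library-drug doses (not always all listed) in √10 steps on vehicle-anchored plates. The cells then spent 5 days without medium change before a combined fix, permeabilisation and Hoechst stain, 4× imaging and MetaXpress nuclear counts. Viability is the treated-to-vehicle ratio of nuclei, taken as the median across plates. Only plates with control CV below 25% and at least one doubling passed.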

[2] = compound: CN(C)C[C@@H]1CCn2cc(c3ccccc32)C2=C(C(=O)NC2=O)c2cn(c3ccccc23)CCO1 [Ruboxistaurin] + CC(=O)Nc1cccc(-n2c(=O)n(C3CC3)c(=O)c3c(Nc4ccc(I)cc4F)n(C)c(=O)c(C)c32)c1 [Trametinib] (partner 0.02 µM)
Summary of the method: (§1)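 One day after seeding in 1536-well plates, lung cancer cell lines were dosed by pin tool. Dosing was either single-drug or a fixed anchor-drug dose plus five library-drug doses (not always all listed) in √10 steps. After 5 days, nuclei were stained in one fix-and-stain step and counted on 4× images, and relative viability is the nuclei count of treated wells over that of vehicle wells, given as the median of duplicate plates.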

[3] = compound: CN(C)C[C@@H]1CCn2cc(c3ccccc32)C2=C(C(=O)NC2=O)c2cn(c3ccccc23)CCO1 [Ruboxistaurin] + NC(=O)Nc1cc(-c2cccc(F)c2)sc1C(=O)N[C@H]1CCCNC1 [AZD7762] (partner 0.2 µM)
Summary of the method: as §1

[4] = compound: CN(C)C[C@@H]1CCn2cc(c3ccccc32)C2=C(C(=O)NC2=O)c2cn(c3ccccc23)CCO1 [Ruboxistaurin] + CS(=O)(=O)CCNCc1ccc(-c2ccc3ncnc(Nc4ccc(OCc5cccc(F)c5)c(Cl)c4)c3c2)o1 [Lapatinib] (partner 2 µM)
Summary of the method: as §1

[5] = compound: CN(C)C[C@@H]1CCn2cc(c3ccccc32)C2=C(C(=O)NC2=O)c2cn(c3ccccc23)CCO1 [Ruboxistaurin] + O=C(CCCCCCC(=O)Nc1ccccc1)NO [Vorinostat] (partner 1 µM)
Summary of the method: as §1

Cell Line	relative viability ([1]; 0.08 µM)	relative viability ([1]; 0.8 µM)	relative viability ([1]; 2.53 µM)	relative viability ([1]; 8 µM)	relative viability ([2]; first compound 0.08 µM)	relative viability ([2]; first compound 0.8 µM)	relative viability ([2]; first compound 2.53 µM)	relative viability ([2]; first compound 8 µM)	relative viability ([3]; first compound 0.08 µM)	relative viability ([3]; first compound 0.8 µM)	relative viability ([3]; first compound 2.53 µM)	relative viability ([3]; first compound 8 µM)	relative viability ([4]; first compound 0.08 µM)	relative viability ([4]; first compound 0.8 µM)	relative viability ([4]; first compound 2.53 µM)	relative viability ([4]; first compound 8 µM)	relative viability ([5]; first compound 0.08 µM)	relative viability ([5]; first compound 0.8 µM)	relative viability ([5]; first compound 2.53 µM)	relative viability ([5]; first compound 8 µM)
NCI-H1734	0.989	0.832	1.04	0.816	0.724	0.613	0.691	0.58	0.619	0.503	0.574	0.473	1.1	0.984	1.11	0.445	0.861	0.714	0.815	0.624
EKVX	1.06	0.928	1.02	0.884	0.359	0.287	0.336	0.281	0.607	0.623	0.649	0.656	0.2	0.19	0.216	0.188	0.841	0.65	0.714	0.75
HARA	0.978	0.918	0.976	0.929	0.674	0.636	0.653	0.684	0.346	0.525	0.339	0.336	0.803	0.672	0.712	0.57	0.724	0.494	0.535	0.546
EMC-BAC-2	1.05	0.957	0.95	0.84	0.94	0.841	0.775	0.721	1.12	1.05	1.11	0.891	0.879	0.856	0.866	0.802	0.53	0.461	0.523	0.384
PC-14	1.17	0.924	1.01	0.989	1.05	0.667	0.73	0.527	0.391	0.33	0.346	0.439	0.353	0.311	0.302	0.294	0.892	0.668	0.785	0.648
NCI-H1755	1.01	1.01	0.974	1.03	0.804	0.713	0.744	0.771	0.417	0.483	0.419	0.525	1.05	1	1.01	1.07	0.702	0.849	0.856	0.811
NCI-H2087	1.17	0.976	1.05	1.06	0.202	0.135	0.205	0.186	1.46	1.17	1.38	1.44	0.952	1.02	1.25	1.1	0.977	0.672	0.723	0.975
CAL-12T	1.15	0.879	1.03	1.09	0.303	0.347	0.323	0.399	0.691	0.661	0.748	0.65	0.735	0.554	0.765	0.78	0.937	0.473	0.744	0.941
NCI-H2085	1.02	0.942	1.07	1.04	0.67	0.538	0.64	0.502	1.05	0.957	1.14	0.981	0.902	0.76	0.754	0.721	0.914	0.82	0.842	0.815
NCI-H650	1.19	0.864	0.98	1.02	1.1	0.914	1.01	0.952	1.09	1.06	1.06	0.953	1.22	0.764	1.38	0.491	0.456	0.383	0.454	0.717
LCLC-97TM1	0.905	0.948	1.08	0.906	0.207	0.141	0.203	0.154	0.268	0.297	0.442	0.416	1.1		1.6	1.05	0.683	0.691	0.74	0.613
NCI-H2126	1	0.898	1.04	0.934	0.617	0.552	0.617	0.541	1.03	0.91	0.981	0.962	0.751	0.703	0.774	0.73	0.844	0.636	0.871	0.621
201T	1.03	0.98	1.01	0.973	0.739	0.705	0.764	0.747	0.539	0.549	0.581	0.641	1.06	1	1.06	1.05	1	0.961	1.05	1.03
